In patent EP1147080B1 (Wyeth Holdings Corporation, priority 1999, dated 2000):
Where two headings read alike, the source gives them in different places.

Legend:
MMP-1 = biological target: T1, MMP-1 (Homo sapiens, UniProt P03956); experiment: MMP-1 inhibition (thiopeptide or fluorescent peptide substrate); details: for inhibition at 10 µM: read-out: MMP1
T1 sequence (P03956 100-469): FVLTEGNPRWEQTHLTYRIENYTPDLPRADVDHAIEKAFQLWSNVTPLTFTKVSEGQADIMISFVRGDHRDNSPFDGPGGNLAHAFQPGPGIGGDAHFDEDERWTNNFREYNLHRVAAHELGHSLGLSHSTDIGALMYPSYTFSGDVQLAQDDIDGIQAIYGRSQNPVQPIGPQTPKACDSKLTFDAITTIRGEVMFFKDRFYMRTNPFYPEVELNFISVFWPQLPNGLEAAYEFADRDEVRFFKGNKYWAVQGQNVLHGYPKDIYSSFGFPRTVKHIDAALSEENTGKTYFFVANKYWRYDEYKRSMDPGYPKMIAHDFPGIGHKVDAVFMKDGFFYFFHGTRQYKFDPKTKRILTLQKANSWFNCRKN

MMP-9 = MMP-9 (Homo sapiens, UniProt P14780); experiment: MMP-9 inhibition (thiopeptide or fluorescent peptide substrate); details: for inhibition at 10 µM: read-out: MMP9
Sequence of MMP-9 (P14780 94-707): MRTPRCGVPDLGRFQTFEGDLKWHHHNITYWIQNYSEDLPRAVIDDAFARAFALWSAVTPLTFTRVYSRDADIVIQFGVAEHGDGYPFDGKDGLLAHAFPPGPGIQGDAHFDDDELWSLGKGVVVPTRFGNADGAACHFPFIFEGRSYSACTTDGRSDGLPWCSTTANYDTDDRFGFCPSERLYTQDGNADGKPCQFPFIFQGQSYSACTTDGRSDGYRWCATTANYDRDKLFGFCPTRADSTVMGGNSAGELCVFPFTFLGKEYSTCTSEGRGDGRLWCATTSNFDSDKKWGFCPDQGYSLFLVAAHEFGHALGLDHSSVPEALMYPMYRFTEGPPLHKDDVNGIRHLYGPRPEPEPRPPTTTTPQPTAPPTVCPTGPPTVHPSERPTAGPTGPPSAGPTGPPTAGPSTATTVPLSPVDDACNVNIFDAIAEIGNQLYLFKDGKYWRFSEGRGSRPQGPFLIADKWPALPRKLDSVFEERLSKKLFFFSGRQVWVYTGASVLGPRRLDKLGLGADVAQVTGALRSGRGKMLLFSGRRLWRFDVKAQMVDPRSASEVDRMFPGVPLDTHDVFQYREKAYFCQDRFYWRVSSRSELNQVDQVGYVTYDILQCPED
Description: The enzyme activity is measured by the rate of the color increase. The thiopeptide substrate is made up fresh as a 20 mM stock in 100% DMSO and the DTNB is dissolved in 100% DMSO as a 100 mM stock and stored in the dark at room temperature. Both the substrate and DTNB are diluted together to 1 mM with substrate buffer (50 mM HEPES pH 7.5, 5 mM CaCl2) before use. The stock of enzyme is diluted with buffer (50 mM HEPES, pH 7.5, 5 mM CaCl2, 0.02% Brij) to the desired final concentration.
Alternatively, a fluorescent peptide substrate is used. In this test procedure, the peptide substrate contains a fluorescent group and a quenching group. Upon cleavage of the substrate by an MMP, the fluorescence that is generated is quantitated on the fluorescence plate reader. The assay is run in HCBC assay buffer (50mM HEPES, pH 7.0, 5 mM Ca^+2, 0.02% Brij, 0.5% Cysteine), with human recombinant MMP-1, MMP-9, or MMP-13. The substrate is dissolved in methanol and stored frozen in 1 mM aliquots. For the assay, substrate and enzymes are diluted in HCBC buffer to the desired concentrations. Compounds are added to the 96 well plate containing enzyme and the reaction is started by the addition of substrate.
For either the thiopeptide or fluorescent peptide test procedures, the slope of the line is calculated and represents the reaction rate. […] The mean (x±sem) of the control rate is calculated and compared for statistical significance (p<0.05) with drug-treated rates using Dunnett's multiple comparison test.

THP-1 cells = experiment: Human monocytic THP-1 cell differentiation assay for soluble proteins (THP soluble protein assay), LPS-stimulated, TNF-α ELISA; type: cell-based; details: Homo sapiens, THP-1; at 3 uM; percent change from vehicle positive control; read-out: TNFalpha at 3 uM) THP (percent change)
Description: Mitogenic stimulation of THP-1 cells cause differentiation into macrophage like cells with concomitant secretion of tumor necrosis factor (TNF-a) and TNF receptor (TNF-R p75/80 and TNF-R p55/60) and Interleukin-8 (IL-8), among other proteins. In addition, non-stimulated THP-1 cells shed both the p75/80 and the p55/60 receptors over time. The release of membrane bound TNF-a and possibly TNF-R p75/80 and TNF-R p55/60, but not IL-8, is mediated by an enzyme called TNF-α converting enzyme or TACE.
THP-1 cells (from ATCC) are a human monocytic cell line which were obtained from the peripheral blood of a person with acute monocytic leukemia. They can be grown in culture and differentiated into macrophage like cells by stimulation with mitogens.
Each vial of cells are cultured for about two weeks prior to being used for an assay and then are used for only 4 to 6 weeks to screen compounds.
Cell exposure to DMSO was limited to 0.1 % final concentration. […] Compounds can be evaluated for their effect on basal (non-stimulated) shedding of the receptors by replacing the LPS with […] of THP-1 media. Plates are placed into an incubator set at 5% CO2 and at 37°C. After 4 hours of incubation, […] of tissue culture supernatant (TCS) is removed for use in an TNF-α ELISA. Following 24 hours of incubation, […] of TCS is removed and used for analysis in TNF-R p75/80, TNF-R p55/60 and IL-8 ELISAs.
In addition, at the 24 hours timepoint, and the cells for each treatment group are collected by resuspension in 500 µl/well of THP-1 media and transferred into a FACS tube. […] The samples are run on a Becton Dickinson FaxCaliber FLOW cytometry machine and the amount of dye taken up by each cell is measured in the high red wavelength (FL3). Only cells with compromised membranes (dead or dying) can take up PI. The percent of live cells is calculated by the number of cells not stained with PI, divided by the total number of cells in the sample. The viability values calculated for the drug treated groups were compared to the viability value calculated for the vehicle treated mitogen stimulated group ("vehicle positive control") to determine the "percent change from control". This "percent change from control" value is an indicator of drug toxicity.
The quantity of soluble TNF-α, TNF-R p75/80 and TNF-R p55/60 and IL-8 in the TCS of the THP-1 cell cultures are obtained with commercially available ELISAs from R&D Systems, by extrapolation from a standard curve generated with kit standards. The number of cells that either take up or exclude PI are measured by the FLOW cytometry machine and visualized by histograms using commercially available Cytologic software for each treatment group including all controls.
Biological variability in the magnitude of the response of THP-1 cell cultures requires that experiments be compared on the basis of percent change from "vehicle positive control" for each drug concentration. Percent change in each soluble protein evaluated from the "vehicle positive control" was calculated for each compound concentration with the following formula: % Change =(pg/ml (compound) - pg/ml (veh pos control))/(pg/ml (veh pos control) - pg/ml (veh neg control))x 100 [formula]
For the soluble protein (TNF-a, p75/80, p55/60, IL-8) studies under stimulated conditions, the mean pg/ml of duplicate wells were determined and the results expressed as percent change from "vehicle positive control". For the soluble protein (p75/80 and p55/60 receptors) studies under non-stimulated conditions, the mean pg/ml of duplicate wells were determined and the results expressed as percent change from […] utilizing the following formula: % Change =(pg/ml (compound neg control) - pg/ml (veh neg control))/(pg/ml (veh neg control))X 100 [formula]
IC50 values for each compound are calculated by non-linear regression analysis using customized software utilizing the JUMP statistical package.

MMP-13 = MMP-13 (Homo sapiens, UniProt P45452); experiment: MMP-13 inhibition (thiopeptide or fluorescent peptide substrate); type: biochemical; details: for inhibition at 10 µM / MMP13: % @ 10µM per footnote a; for inhibition at 10 µM / IC50: read-out: MMP13
Description: Alternatively, a fluorescent peptide substrate is used.

[1] = biological target: TNF-α converting enzyme (TACE) (Homo sapiens, UniProt P78536); experiment: Test procedure for measuring TACE inhibition (fluorescent peptidyl substrate); type: biochemical; details: for IC50: second table, IC50 (nM) per footnote a
Sequence of TNF-α converting enzyme (TACE) (P78536 215-824): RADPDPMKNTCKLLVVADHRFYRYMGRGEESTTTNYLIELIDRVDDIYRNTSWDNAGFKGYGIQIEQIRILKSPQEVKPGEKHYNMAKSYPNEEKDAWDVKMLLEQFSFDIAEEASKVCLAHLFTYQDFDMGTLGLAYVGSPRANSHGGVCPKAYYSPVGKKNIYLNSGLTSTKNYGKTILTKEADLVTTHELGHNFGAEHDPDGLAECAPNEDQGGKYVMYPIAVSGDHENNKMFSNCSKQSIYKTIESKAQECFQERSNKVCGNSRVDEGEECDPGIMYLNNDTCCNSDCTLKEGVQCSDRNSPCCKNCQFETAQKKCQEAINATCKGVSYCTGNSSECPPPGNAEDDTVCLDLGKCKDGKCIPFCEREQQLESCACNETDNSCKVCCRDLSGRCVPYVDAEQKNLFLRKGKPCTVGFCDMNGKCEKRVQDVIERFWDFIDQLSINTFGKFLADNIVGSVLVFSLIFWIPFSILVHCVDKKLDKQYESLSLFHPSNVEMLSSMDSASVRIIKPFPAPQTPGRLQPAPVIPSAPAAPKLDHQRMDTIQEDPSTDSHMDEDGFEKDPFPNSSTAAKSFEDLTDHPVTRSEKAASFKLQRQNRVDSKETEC

SMILES: CC#CCOc1ccc([S+]([O-])[C@H](C(=O)NO)c2ccc(OC)cc2)cc1 (single isomer, unassigned) [Example 78]
- inhibition at 10 µM (MMP-1): 5.9%
- inhibition at 10 µM (MMP-9): 32.7%
- inhibition at 3 µM (THP-1 cells): 13%
- inhibition at 10 µM (MMP-13): 54.5%

SMILES: CC#CCOc1ccc(S(=O)(=O)C(C(=O)NO)c2ccc(OC)cc2)cc1 (centres unmarked) [Example 79, 2-{[4-(2-butynyloxy)phenyl]sulfonyl}-N-hydroxy-2-(4-methoxyphenyl) acetamide]
- IC50 [1]: 48.1 nM
- inhibition at 10 µM (MMP-1): 23.3%
- inhibition at 10 µM (MMP-9): 27.3%
- inhibition at 10 µM (MMP-13): 56.8%

SMILES: CC#CCOc1ccc([S+]([O-])C(C(=O)NO)c2ccccc2)cc1 (single isomer, unassigned) [Example 113, S-2-{[4-(2-butynyloxy)phenyl]sulfinyl}-2-phenyl-N-hydroxyacetamide]
- MMP1 (MMP-1): 6.20%
- MMP9 (MMP-9): 25.70%
- MMP13 (MMP-13): 59%

SMILES: CC#CCOc1ccc(S(=O)(=O)C(C(=O)NO)C2CCCCC2)cc1 (centres unmarked) [Example 75, 2-{[4-(2-butynyloxy)phenyl]sulfonyl}-2-cyclohexyl-N-hydroxyacetamide]
- inhibition at 10 µM (MMP-1): 34.6%
- inhibition at 10 µM (MMP-9): 68.2%
- inhibition at 3 µM (THP-1 cells): 39%
- IC50 (MMP-13): 708 nM

SMILES: CC#CCOc1ccc(SC(C(=O)NO)c2ccc(F)cc2)cc1 (centres unmarked) [Example 95]
- inhibition at 10 µM (MMP-1): 9%
- inhibition at 10 µM (MMP-9): 5.7%
- inhibition at 3 µM (THP-1 cells): -7%
- inhibition at 10 µM (MMP-13): 26%

SMILES: CC#CCOc1ccc([S+]([O-])C(C(=O)NO)c2ccc(F)cc2)cc1 (centres unmarked) [Example 96]
- MMP1 (MMP-1; % @ 10µM per footnote a): 18.40%
- MMP9 (MMP-9; % @ 10µM per footnote a): 0%
- MMP13 (MMP-13): 53.40%

SMILES: CC#CCOc1ccc([S+]([O-])C(C(=O)NO)C(C)C)cc1 (centres unmarked) [Example 108, R-2-{[4-(2-butynylaxy)phenyl]sulfinyl}-2-isopropyl-N-hydroxyacetamide]
- IC50 (MMP-1): 6.48 µM
- IC50 (MMP-9): 399 nM

SMILES: CC#CCOc1ccc(S(=O)(=O)C(C(=O)NO)C2CCNCC2)cc1 (centres unmarked) [Example 118, 2-{[4-(2-butynyloxy)phenyl]sulfonyl}-N-hydroxy-2-(4-piperidinyl) acetamide]
- IC50 [1]: 299 nM
- inhibition at 10 µM (MMP-1): 23.8%
- inhibition at 3 µM (THP-1 cells): 24%
- inhibition at 10 µM (MMP-13): 69.5%

SMILES: CC#CCOc1ccc(SC(C(=O)NO)c2cccc3ccccc23)cc1 (centres unmarked) [Example 92, 2-{[4-(2-Butynyloxy)phenyl]sulfanyl}-N-hydroxy-2-(1-naphthyl)acetamide]
- IC50 [1]: 931 nM
- inhibition at 10 µM (MMP-1): 8%
- inhibition at 3 µM (THP-1 cells): -7%
- inhibition at 10 µM (MMP-13): 25%

SMILES: CC#CCOc1ccc([S+]([O-])C(C(=O)NO)c2cccc3ccccc23)cc1 (centres unmarked) [Example 93, 2-{[4-(2-Butynyloxy)phenyl]sulfinyl}-N-hydroxy-2-(1-naphthyl)acetamide]
- inhibition at 10 µM ([1]; % @ 10µM per footnote a, read-out: TACE IC50): 15.6%
- inhibition at 10 µM (MMP-1): 7%
- inhibition at 3 µM (THP-1 cells): -1%
- inhibition at 10 µM (MMP-13): 17%

SMILES: CC#CCOc1ccc(S(=O)(=O)C(CCc2ccc(OCCN3CCCCC3)cc2)C(=O)NO)cc1 (centres unmarked) [Example 71]
- IC50 (MMP-1): 10 µM
- IC50 (MMP-9): 2510 nM
- inhibition at 3 µM (THP-1 cells): 11%
- IC50 (MMP-13): 894 nM

SMILES: CC#CCOc1ccc([S+]([O-])[C@@H](C(=O)NO)c2ccc(OC)cc2)cc1 (single isomer, unassigned) [Example 77]
- MMP1 (MMP-1; % @ 10µM per footnote a): 17.50%
- MMP9 (MMP-9): 45.40%

SMILES: CC#CCOc1ccc(SC(C(=O)NO)c2cccc(Cl)c2)cc1 (centres unmarked) [Example 83, 2-{[4-(2-butynyloxy)phenyl]sulfanyl}-2-(3-chlorophenyl)-N-hydroxyacetamide]
- IC50 [1]: 133 nM
- inhibition at 10 µM (MMP-1): 9.4%
- inhibition at 3 µM (THP-1 cells): 0%
- inhibition at 10 µM (MMP-13): 36.4%

SMILES: CC#CCOc1ccc(SC(C(=O)NO)c2ccc(OC)cc2)cc1 (centres unmarked) [Example 76, 2-{[4-(2-butynyloxy)phenyl]sulfanyl}-N-hydroxy-2-(4-methoxyphenyl) acetamide]
- inhibition at 10 µM (MMP-1): 3%
- inhibition at 10 µM (MMP-9): 21.6%
- inhibition at 3 µM (THP-1 cells): 15%
- inhibition at 10 µM (MMP-13): 26.8%
